Experimental data as given in patent publication US6875578B2, “System for cell-based screening” (priority 1997, dated 2005).

Legend:
L929 cells [1] = assay: Apoptosis mitochondrial mass/potential, L929 cells; assay type: cell-based, mouse; conditions: 30 hours
Method: (§1) Cells were plated into 96-well plates at densities of 3×10^3 to 1×10^4 cells/well. The following day apoptotic inducers were added at the indicated concentrations and cells were incubated for the indicated time periods (usually 16-30 hours). Cells were stained with 5 μg/ml Hoechst (Molecular Probes, Inc.) and 750 nM MITOTRACKER™ Red (CMXRos, Molecular Probes, Inc.) in fresh medium and incubated for 30 minutes at 37° C. Cells were washed in HBSS and fixed with 3.7% formaldehyde in HBSS at room temperature. Plates were washed with HBSS and permeabilized with 0.5% v/v TRITON™ X-100 in HBSS at room temperature. Cells were washed 2× with HBSS at room temperature and the plate was sealed. For dual labeling of mitochondria, cells were treated with 200 nM MITOTRACKER™ Green and 200 nM MITOTRACKER™ Red for 0.5 hours before fixation.
(§2) The mitochondrial membrane potential is measured by labeling mitochondria with both MITOTRACKER™ Green FM and MITOTRACKER™ Red (Molecular Probes, mc). MITOTRACKER™ Red labeling is proportional to both mass and membrane potential. MITOTRACKER™ Green FM labeling is proportional to mass. The ratio of MITOTRACKER™ Red signal to the MITOTRACKER™ Green FM signal provides a measure of mitochondrial membrane potential (Poot and Pierce, 1999). This ratio normalizes the […]. […]

L929 cells [2] = assay: Apoptosis actin reorganization (f-actin content), L929 cells; assay type: cell-based, mouse; conditions: 30 hours
Method: Cells were plated in 96-well plates at densities of 3×10^3 to 1×10^4 cells/well. The following day apoptotic inducers were added at indicated concentrations. Cells were incubated for the indicated time periods (usually 16-30 hours). The next day the medium was removed and cells were stained with 5 μg/ml Hoechst (Molecular Probes, Inc.) in fresh medium and incubated for 30 minutes at […]. Cells were washed in HBSS and fixed with 3.7% formaldehyde in HBSS at room temperature. Plates were washed with HBSS and permeabilized with 0.5% v/v Triton X-100 in HBSS at room temperature. Plates were washed in HBSS and stained with 100 μl of 1 U/ml of Alexa 488 Phalloidin stock (100 μl/well, Molecular Probes, Inc.). Cells were washed 2×with HBSS at RT and the plate was sealed.
Quantitation of f-actin content was accomplished by measuring the intensity of phalloidin staining around the nucleus. This was determined to be a reasonable approximation of a full cytoplasmic average of the intensity. The mask used to approximate this cytoplasmic measure was derived from the nuclear mask defined by the Hoechst stain. Derivation was accomplished by combinations of erosions and dilations.

L-929 cells = assay: High-content screen of paclitaxel-induced apoptosis, L-929 cells; assay type: cell-based, mouse
Method: The cells chosen for this study were mouse connective tissue fibroblasts (L-929; ATCC CCL-1) and a highly invasive glioblastoma cell line (SNB-19; ATCC CRL-2219) (Welch et al., In Vitro Cell. Dev. Bid. 31:610, 1995). The day before treatment with an apoptosis inducing drug, 3500 cells were placed into each well of a 96-well plate and incubated overnight at 37° C. in a humidified 5% CO2 atmosphere. The following day, the culture medium was removed from each well and replaced with fresh medium containing various concentrations of paclitaxel (0-50 μM) from a 20 mM stock made in DMSO. The maximal concentration of DMSO used in these experiments was 0.25%. The cells were then incubated for 26 h as above. At the end of the paclitaxel treatment period, each well received fresh medium containing 750 nM MITOTRACKER™ Red (Molecular Probes; Eugene, Oreg.) and 3 μg/ml Hoechst 33342 DNA-binding dye (Molecular Probes) and was incubated as above for 20 mm. Each well on the plate was then washed with HBSS and fixed with 3.7% formaldehyde in HBSS for 15 mm at room temperature. The formaldehyde was washed out with HBSS and the cells were permeabilized for 90 s with 0.5% (v/v) Triton X-100, washed with HBSS, incubated with 2 U ml^−1 BODIPY™ FL phallacidin (Molecular Probes) for 30 mm, and washed with HBSS. The wells on the plate were then filled with 200 μl HBSS, sealed, and the plate stored at 4° C. if necessary. The fluorescence signals from plates stored this way were stable for at least two weeks after preparation. As in the nuclear translocation assay, fluorescence reagents can be designed to convert this assay into a live cell high-content screen.
The fluorescence intensity of intracellular MITOTRACKER™ Red, Hoechst 33342, and BODIPY™ FL phallacidin was measured with the cell screening system as described supra. Morphometric data from each pair of images obtained from each well was also obtained to detect each object in the image field (e.g., cells and nuclei), and to calculate its size, shape, and integrated intensity.
A total of 50-250 cells were measured per image field. For each field of cells, the following calculations were performed: (1) The average nuclear area (μm^2) was calculated by dividing the total nuclear area in a field by the number of nuclei detected. (2) The average nuclear perimeter (μm) was calculated by dividing the sum of the perimeters of all nuclei in a field by the number of nuclei detected in that field. Highly convoluted apoptotic nuclei had the largest nuclear perimeter values. (3) The average nuclear brightness was calculated by dividing the integrated intensity of the entire field of nuclei by the number of nuclei in that field. An increase in nuclear brightness was correlated with increased DNA content. (4) The average cellular brightness was calculated by dividing the integrated intensity of an entire field of cells stained with MITOTRACKER™ dye by the number of nuclei in that field. Because the amount of MITOTRACKER™ dye that accumulates within the mitochondria is proportional to the mitochondrial potential, an increase in the average cell brightness is consistent with an increase in mitochondrial potential. (5) The average cellular brightness was also calculated by dividing the integrated intensity of an entire field of cells stained with BODIPY™ FL phallacidin dye by the number of nuclei in that field. […]

BHK cells = assay: Apoptosis mitochondrial mass/potential, BHK cells; assay type: cell-based; conditions: 30 hours
Method: as §1, §2

CC(=O)O[C@H]1C(=O)[C@@]2(C)[C@H]([C@H](OC(=O)c3ccccc3)[C@]3(O)C[C@H](OC(=O)[C@H](O)[C@@H](NC(=O)c4ccccc4)c4ccccc4)C(C)=C1C3(C)C)[C@]1(OC(C)=O)CO[C@@H]1C[C@@H]2O [paclitaxel]
mitochondrial changes (mass / membrane potential) (L929 cells [1]): consistent increases in mitochondrial mass | change in peri-nuclear f-actin content (L929 cells [2]): dose-dependent increases in f-actin content | change in peri-nuclear f-actin content (L929 cells [2]; listed as Paclitaxel): graded increases in f-actin | sensitivity, each parameter measured (L-929 cells; L-929 cells compared with SNB-19 cells): less sensitive to low concentrations of paclitaxel than were SNB-19 cells | concentration of maximal response in many parameters (L-929 cells; L-929 cells, 26 h): 5 µM | mitochondrial potential (L-929 cells; L-929 cells, any of the concentrations tested (0-50 μM), 26 h): did not show a sharp decrease in mitochondrial potential | nuclear morphology (L-929 cells; L-929 cells, increasing amounts, 26 h): caused nuclei to enlarge and fragment | dose of maximal response relative to SNB-19 cells (L-929 cells; L-929 vs SNB-19 cells): 500 fold | mitochondrial changes (mass / membrane potential) (BHK cells): consistent increases in mitochondrial mass
